Values quoted from earlier work, collected in patent US20230181675A1, “NOVEL FORMUATIONS” (ARECOR LIMITED, priority 2020, published 2023).

Conditions: at 25° C.

Compound	logK metal binding stability constant with respect to zinc ion binding
O=C(O)CN(CCOCCOCCN(CC(=O)O)CC(=O)O)CC(=O)O [EGTA, ethyleneglycoltetraacetate]	12.6
O=C(O)CC(O)(CC(=O)O)C(=O)O [Citrate]	4.93
O=C(O)CN(CCN(CC(=O)O)CC(=O)O)CC(=O)O [EDTA, ethylenediaminetetraacetate]	14.5
